Measurements from article PMC4128046, “Effect of a toggle switch mutation in TM6 of the human adenosine A3 receptor on Gi protein-dependent signalling and Gi-independent receptor internalization” (British Journal of Pharmacology, 2014).

Molecular target: T1, A3 W243F-YFP (Homo sapiens, UniProt P0DMS8, W243F)
T1 construct: Full length A3 W243F-YFP was excised and subcloned into a native pcDNA3.1 vector; expressed in transfected cells
T1 sequence (P0DMS8 1-318 W243F): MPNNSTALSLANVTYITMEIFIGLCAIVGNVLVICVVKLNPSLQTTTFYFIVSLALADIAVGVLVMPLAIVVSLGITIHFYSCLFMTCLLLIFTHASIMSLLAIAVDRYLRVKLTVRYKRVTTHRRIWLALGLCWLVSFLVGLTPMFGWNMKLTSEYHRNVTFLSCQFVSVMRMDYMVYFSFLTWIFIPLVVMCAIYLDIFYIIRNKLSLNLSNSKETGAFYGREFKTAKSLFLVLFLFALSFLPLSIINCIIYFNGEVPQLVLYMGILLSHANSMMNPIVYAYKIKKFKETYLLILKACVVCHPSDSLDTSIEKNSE
Experiment: ERK1/2 phosphorylation assay (AlphaScreen SureFire), A3 W243F-YFP
Format: cell-based
Protocol: Normal growth medium was replaced with serum-free medium for at least 4 h before analysis. Levels of ERK1/2 phosphorylation were measured using the AlphaScreen SureFire p-ERK assay kit (PerkinElmer). […] Medium was removed from each well and replaced with 40 μL SureFire lysis buffer. After shaking for 5 min, a 1:80:20:120 v v^−1 dilution of AlphaScreen beads : lysate : activation buffer : reaction buffer in a 5.5 μL total volume was transferred to a white opaque 384-well proxiplate in diminished light. After 2 h of incubation in the dark at room temperature, the fluorescence signal was measured with an EnVision plate reader (PerkinElmer) using standard AlphaScreen settings.
A basal and FSK control was included in each separate concentration-response CRE-SPAP gene transcription assay and cAMP accumulation assay to allow the responses in each cell line to be expressed as an inhibition of FSK-stimulated SPAP production.

`CCCCC#Cc1nc(NC)c2ncn([C@@H]3O[C@H](CO)[C@@H](O)[C@H]3O)c2n1` [HEMADO, 2-(1-hexynyl)-N-methyladenosine] was tested, and the EC50 (A3 W243F-YFP cells, 5 min stimulation, read-out: pEC50 (pERK1/2 assay) (converted)) was 0.0195 µM and the Emax (read-out: Maximum response (% 10 μM NECA), pERK1/2 assay) was 16 ± 3.1%.
